IC50 data for 27 compounds are collected here from US9242987B2, “Heterocyclyl pyrazolopyrimidine analogues as JAK inhibitors” (Cellzome Limited, priority 2009, dated 2016).

Structures are written as SMILES.

One assay has as its target T1, JAK2 (Homo sapiens, UniProt O60674).
T1 construct: endogenous in cells; host or cells: Mixed Molt4/Ramos lysate (1:2)
Put plainly: Kinobeads assay, JAK2. It is filed as binding. As to conditions: mixed Molt4/Ramos cell lysate, dot blot detection. The essentials:
(§1)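 Competition pulldown: compound dilution series incubated 3 h in cold room with immobilized aminopyrido-pyrimidine beads and mixed Molt4/Ramos lysate (1:2, 10 mg/mL protein) in DP buffer pH 7.4 with NP40. Bead-bound JAK2/JAK3 eluted, quantified by antibody dot blot with infrared detection; IC50 from dose-response curves.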

The target of the next assay is T2, JAK3 (Homo sapiens, UniProt P52333).
T2 construct: endogenous in cells; host or cells: Mixed Molt4/Ramos lysate (1:2)
T2 sequence (P52333 1-1124): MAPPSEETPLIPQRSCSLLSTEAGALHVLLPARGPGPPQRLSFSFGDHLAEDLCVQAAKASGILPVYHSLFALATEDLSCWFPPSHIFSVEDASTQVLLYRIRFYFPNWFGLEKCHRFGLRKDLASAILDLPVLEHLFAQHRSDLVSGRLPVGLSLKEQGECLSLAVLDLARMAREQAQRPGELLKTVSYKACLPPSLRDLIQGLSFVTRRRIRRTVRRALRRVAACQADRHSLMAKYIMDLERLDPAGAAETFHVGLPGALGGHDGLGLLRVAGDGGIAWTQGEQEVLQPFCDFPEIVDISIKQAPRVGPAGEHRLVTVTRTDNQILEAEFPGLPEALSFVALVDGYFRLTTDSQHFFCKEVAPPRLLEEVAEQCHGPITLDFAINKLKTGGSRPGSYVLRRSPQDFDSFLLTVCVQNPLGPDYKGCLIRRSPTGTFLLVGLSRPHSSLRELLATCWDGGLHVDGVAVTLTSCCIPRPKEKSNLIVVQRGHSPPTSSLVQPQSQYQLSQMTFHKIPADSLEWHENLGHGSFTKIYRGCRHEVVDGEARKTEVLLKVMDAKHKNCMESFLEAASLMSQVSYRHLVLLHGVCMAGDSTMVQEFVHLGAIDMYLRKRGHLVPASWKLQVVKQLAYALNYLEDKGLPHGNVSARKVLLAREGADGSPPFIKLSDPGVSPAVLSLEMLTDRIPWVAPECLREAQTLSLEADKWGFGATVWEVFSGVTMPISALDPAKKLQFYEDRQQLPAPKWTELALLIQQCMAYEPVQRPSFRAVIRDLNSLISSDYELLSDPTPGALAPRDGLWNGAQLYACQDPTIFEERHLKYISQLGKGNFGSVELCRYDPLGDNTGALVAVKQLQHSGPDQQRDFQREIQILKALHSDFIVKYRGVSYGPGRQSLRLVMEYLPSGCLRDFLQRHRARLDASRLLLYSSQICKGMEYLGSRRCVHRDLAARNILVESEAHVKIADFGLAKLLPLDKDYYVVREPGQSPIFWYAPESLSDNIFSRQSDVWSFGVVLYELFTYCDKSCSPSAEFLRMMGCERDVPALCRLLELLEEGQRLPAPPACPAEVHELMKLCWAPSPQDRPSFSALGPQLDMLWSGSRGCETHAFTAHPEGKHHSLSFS
Briefly: Kinobeads assay, JAK3. The format is binding. The following applies: mixed Molt4/Ramos cell lysate, dot blot detection. The essentials:
as §1

T1 sequence (O60674 whole entry): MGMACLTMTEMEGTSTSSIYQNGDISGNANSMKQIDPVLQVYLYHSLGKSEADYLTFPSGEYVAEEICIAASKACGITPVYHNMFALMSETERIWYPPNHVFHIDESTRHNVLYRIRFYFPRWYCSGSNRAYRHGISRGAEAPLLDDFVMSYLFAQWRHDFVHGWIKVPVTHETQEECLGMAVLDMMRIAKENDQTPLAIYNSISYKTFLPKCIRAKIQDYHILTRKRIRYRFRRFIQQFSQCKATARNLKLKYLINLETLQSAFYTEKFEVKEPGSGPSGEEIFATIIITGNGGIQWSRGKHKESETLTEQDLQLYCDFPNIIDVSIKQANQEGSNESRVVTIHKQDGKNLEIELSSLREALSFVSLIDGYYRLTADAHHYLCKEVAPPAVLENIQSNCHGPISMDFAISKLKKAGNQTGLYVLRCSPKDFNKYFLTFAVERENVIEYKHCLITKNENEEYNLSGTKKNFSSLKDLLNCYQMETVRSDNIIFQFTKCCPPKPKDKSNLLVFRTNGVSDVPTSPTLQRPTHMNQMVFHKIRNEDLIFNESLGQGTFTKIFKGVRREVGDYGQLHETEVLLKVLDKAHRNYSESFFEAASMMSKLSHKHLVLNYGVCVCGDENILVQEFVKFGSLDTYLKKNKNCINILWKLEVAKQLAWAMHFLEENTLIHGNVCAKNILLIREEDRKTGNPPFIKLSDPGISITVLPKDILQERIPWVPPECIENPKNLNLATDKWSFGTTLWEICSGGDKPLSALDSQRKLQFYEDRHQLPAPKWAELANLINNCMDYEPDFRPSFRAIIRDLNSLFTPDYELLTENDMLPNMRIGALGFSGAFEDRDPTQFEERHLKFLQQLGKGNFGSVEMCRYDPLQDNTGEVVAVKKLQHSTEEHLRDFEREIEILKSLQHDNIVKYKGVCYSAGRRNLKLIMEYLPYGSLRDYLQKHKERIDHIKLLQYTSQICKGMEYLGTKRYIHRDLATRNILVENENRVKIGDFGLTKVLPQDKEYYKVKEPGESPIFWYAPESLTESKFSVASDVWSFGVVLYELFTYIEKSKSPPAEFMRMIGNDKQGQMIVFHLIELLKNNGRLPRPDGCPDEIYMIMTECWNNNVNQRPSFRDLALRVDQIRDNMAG

Broadly, the IC50 is the point on the concentration scale where inhibition reaches its midpoint. On to `Cn1cc(Nc2ncc3cnn(Cc4cccc(N5CC[C@@H](O)C5)n4)c3n2)cn1` [Example 208, (R)-1-(6-((6-((1-Methyl-1H-pyrazol-4-yl)amino)-1H-pyrazolo[3,4-d]pyrimidin-1-yl)methyl)pyridin-2-yl)pyrrolidin-3-ol], for which the IC50 is no less than 10000 nM against JAK2 and less than 100 nM at JAK3.

As for `Cn1cc(Nc2ncc3cnn(Cc4cccc(OCC(N)=O)c4)c3n2)cn1` [Example 209], the concentration for half-maximal inhibition (IC50) on JAK2 is 1000 to 10000 nM; on JAK3, less than 100 nM.

With `Cn1cc(Nc2ncc3cnn(Cc4cccc(C5=CCOCC5)c4)c3n2)cn1` [Example 218, 1-(3-(3,6-Dihydro-2H-pyran-4-yl)benzyl)-N-(1-methyl-1H-pyrazol-4-yl)-1H-pyrazolo[3,4-d]pyrimidin-6-amine], the IC50 was no less than 10000 nM on JAK2 and less than 100 nM at JAK3.

`Cn1cc(Nc2ncc3cnn(-c4ccc5c(c4)NC(=O)CO5)c3n2)cn1` [Example 219, 6-(6-((1-Methyl-1H-pyrazol-4-yl)amino)-1H-pyrazolo[3,4-d]pyrimidin-1-yl)-2H-benzo[b][1,4]oxazin-3(4H)-one]: the results for the half-maximal inhibitory concentration (IC50) at JAK2 and at JAK3 were 100 to 1000 nM and less than 100 nM, respectively.

With `Cn1cc(Nc2ncc3cnn(Cc4cccc5ccccc45)c3n2)cn1` [Example 220, N-(1-Methyl-1H-pyrazol-4-yl)-1-(naphthalen-1-ylmethyl)-1H-pyrazolo[3,4-d]pyrimidin-6-amine], the IC50 against JAK2 is 1000 to 10000 nM; against JAK3, 100 to 1000 nM.

Turning to `Cn1cc(Nc2ncc3cnn(Cc4ccccc4OCCOCc4ccccc4)c3n2)cn1` [Example 221, 1-(2-(2-(Benzyloxy)ethoxy)benzyl)-N-(1-methyl-1H-pyrazol-4-yl)-1H-pyrazolo[3,4-d]pyrimidin-6-amine], the IC50 against JAK2 was 1000 to 10000 nM; against JAK3, 100 to 1000 nM.

For the compound `Cn1cc(Nc2ncc3cnn(Cc4cccc(OCCOCc5ccccc5)c4)c3n2)cn1` [Example 222, 1-(3-(2-(Benzyloxy)ethoxy)benzyl)-N-(1-methyl-1H-pyrazol-4-yl)-1H-pyrazolo[3,4-d]pyrimidin-6-amine], the concentration for half-maximal inhibition (IC50) is no less than 10000 nM on JAK2 and 100 to 1000 nM against JAK3.

Consider `Cn1cc(Nc2ncc3cnn(Cc4ccccc4Oc4ccccc4)c3n2)cn1` [Example 224, N-(1-Methyl-1H-pyrazol-4-yl)-1-(2-phenoxybenzyl)-1H-pyrazolo[3,4-d]pyrimidin-6-amine], for which the 50% inhibitory concentration (IC50) is no less than 10000 nM at JAK2 and 100 to 1000 nM at JAK3.

As for `Cn1cc(Nc2ncc3cnn(Cc4cccc(OCCN5CCCC5=O)c4)c3n2)cn1` [Example 225, 1-(2-(3-((6-((1-Methyl-1H-pyrazol-4-yl)amino)-1H-pyrazolo[3,4-d]pyrimidin-1-yl)methyl)phenoxy)ethyl)pyrrolidin-2-one], the half-maximal inhibitory concentration (IC50) was no less than 10000 nM on JAK2 and less than 100 nM at JAK3.

In the case of `Cn1cc(Nc2ncc3cnn(Cc4cccc5c4OCO5)c3n2)cn1` [Example 228, 1-(Benzo[d][1,3]dioxol-4-ylmethyl)-N-(1-methyl-1H-pyrazol-4-yl)-1H-pyrazolo[3,4-d]pyrimidin-6-amine], the results for the 50% inhibitory concentration (IC50) on JAK2 and at JAK3 were 100 to 1000 nM and less than 100 nM, respectively.

On to `Cn1cc(Nc2ncc3cnn(Cc4cccc5c4OCCO5)c3n2)cn1` [Example 229, 1-((2,3-Dihydrobenzo[b][1,4]dioxin-5-yl)methyl)-N-(1-methyl-1H-pyrazol-4-yl)-1H-pyrazolo[3,4-d]pyrimidin-6-amine], for which the IC50 against JAK2 is 100 to 1000 nM; against JAK3, less than 100 nM.

As to `Cn1cc(Nc2ncc3cnn(Cc4cccc(-c5ccncc5)c4)c3n2)cn1` [Example 230, N-(1-Methyl-1H-pyrazol-4-yl)-1-(3-(pyridin-4-yl)benzyl)-1H-pyrazolo[3,4-d]pyrimidin-6-amine], the IC50 against JAK2 was no less than 10000 nM; against JAK3, less than 100 nM.

In the case of `Cn1nc(Nc2ncc3cnn(Cc4ccccc4F)c3n2)cc1C(=O)O` [Example 236, 3-((1-(2-Fluorobenzyl)-1H-pyrazolo[3,4-d]pyrimidin-6-yl)amino)-1-methyl-1H-pyrazole-5-carboxylic acid], the IC50 is no less than 10000 nM on JAK2 and 100 to 1000 nM at JAK3.

Regarding `Cn1cnc(Nc2ncc3cnn(Cc4ccccc4F)c3n2)c1` [Example 237, 1-(2-Fluorobenzyl)-N-(1-methyl-1H-imidazol-4-yl)-1H-pyrazolo[3,4-d]pyrimidin-6-amine], the IC50 is no less than 10000 nM against JAK2 and 100 to 1000 nM against JAK3.

In the case of `OCCn1ccc(Nc2ncc3cnn(Cc4ccccc4F)c3n2)n1` [Example 238, 2-(3-((1-(2-Fluorobenzyl)-1H-pyrazolo[3,4-d]pyrimidin-6-yl)amino)-1H-pyrazol-1-yl)ethanol], the half-inhibitory concentration (IC50) against JAK2 was no less than 10000 nM; against JAK3 it was 100 to 1000 nM.

In the case of `CNC(=O)c1cc(Nc2ncc3cnn(Cc4ccccc4F)c3n2)c[nH]1` [Example 239, 4-((1-(2-Fluorobenzyl)-1H-pyrazolo[3,4-d]pyrimidin-6-yl)amino)-N-methyl-1H-pyrrole-2-carboxamide], the IC50 against JAK2 and against JAK3 was less than 100 nM throughout.

Take `OCCn1cnc(Nc2ncc3cnn(Cc4ccccc4F)c3n2)c1` [Example 240, 2-(4-((1-(2-Fluorobenzyl)-1H-pyrazolo[3,4-d]pyrimidin-6-yl)amino)-1H-imidazol-1-yl)ethanol]: the IC50 on JAK2 is 1000 to 10000 nM; against JAK3, less than 100 nM.

On to `Cn1ccc(Nc2ncc3cnn(Cc4ccccc4F)c3n2)c1` [Example 241, 1-(2-Fluorobenzyl)-N-(1-methyl-1H-pyrrol-3-yl)-1H-pyrazolo[3,4-d]pyrimidin-6-amine], for which the half-inhibitory concentration (IC50) at JAK2 is 1000 to 10000 nM; against JAK3 it was less than 100 nM.

Turning to `CNC(=O)c1cc(Nc2ncc3cnn(Cc4ccccc4F)c3n2)cn1C` [Example 242, 4-((1-(2-Fluorobenzyl)-1H-pyrazolo[3,4-d]pyrimidin-6-yl)amino)-N,1-dimethyl-1H-pyrrole-2-carboxamide], the results for the concentration for half-maximal inhibition (IC50) on JAK2 and on JAK3 were 100 to 1000 nM and less than 100 nM, respectively.

For `Cn1cc(Nc2ncc3cnn(Cc4ccccc4F)c3n2)cc1C(=O)NCCN1CCOCC1` [Example 243, 4-((1-(2-Fluorobenzyl)-1H-pyrazolo[3,4-d]pyrimidin-6-yl)amino)-1-methyl-N-(2-morpholinoethyl)-1H-pyrrole-2-carboxamide], the 50% inhibitory concentration (IC50) at JAK2 and on JAK3 was less than 100 nM throughout.

For the compound `Cn1cc(Nc2ncc3cnn(Cc4ccccc4F)c3n2)cc1C(=O)N1CCOCC1` [Example 244, (4-((1-(2-Fluorobenzyl)-1H-pyrazolo[3,4-d]pyrimidin-6-yl)amino)-1-methyl-1H-pyrrol-2-yl)(morpholino)methanone], the IC50 at JAK2 and at JAK3 was less than 100 nM in each case.

On to `Cn1cc(Nc2ncc3cnn(Cc4ccccc4F)c3n2)cc1C(=O)NCC#N` [Example 245, N-(Cyanomethyl)-4-((1-(2-fluorobenzyl)-1H-pyrazolo[3,4-d]pyrimidin-6-yl)amino)-1-methyl-1H-pyrrole-2-carboxamide], for which the IC50 at JAK2 is 100 to 1000 nM; against JAK3, less than 100 nM.

On to `CN(C)C(=O)c1cc(Nc2ncc3cnn(Cc4ccccc4F)c3n2)cn1C` [Example 246, 4-((1-(2-Fluorobenzyl)-1H-pyrazolo[3,4-d]pyrimidin-6-yl)amino)-N,N,1-trimethyl-1H-pyrrole-2-carboxamide], for which the figures for the half-inhibitory concentration (IC50) at JAK2 and against JAK3 were 100 to 1000 nM and less than 100 nM, respectively.

As to `OCCn1ccc(Nc2ncc3cnn(Cc4ccccc4F)c3n2)c1` [Example 247, 2-(3-((1-(2-Fluorobenzyl)-1H-pyrazolo[3,4-d]pyrimidin-6-yl)amino)-1H-pyrrol-1-yl)ethanol], the results for the concentration for half-maximal inhibition (IC50) against JAK2 and at JAK3 were 100 to 1000 nM and less than 100 nM, respectively.

Take `Cn1cc(Nc2ncc3cnn(Cc4cccc(N5CCOCC5)c4)c3n2)cc1C(=O)N1CCOCC1` [Example 248]: the IC50 at JAK2 was 1000 to 10000 nM; against JAK3, less than 100 nM.

As for `OCCn1cc(Nc2ncc3cnn(Cc4c(F)ccc(F)c4F)c3n2)cn1` [Example 254, 2-(4-((1-(2,3,6-Trifluorobenzyl)-1H-pyrazolo[3,4-d]pyrimidin-6-yl)amino)-1H-pyrazol-1-yl)ethanol], the IC50 against JAK2 is 100 to 1000 nM; at JAK3, less than 100 nM.

Take `OCCn1cc(Nc2ncc3cnn(Cc4ccccc4C4CC4)c3n2)cn1` [Example 260, 2-(4-((1-(2-Cyclopropylbenzyl)-1H-pyrazolo[3,4-d]pyrimidin-6-yl)amino)-1H-pyrazol-1-yl)ethanol]: the values for the half-maximal inhibitory concentration (IC50) on JAK2 and against JAK3 were 1000 to 10000 nM and less than 100 nM, respectively.
